Data reported in patent US20060052430A1, “Antihistamines for increased tolerance to extreme heat” (priority 2004, published 2006).

Experiments:
[1] = in vivo; cited from earlier work
rat = conditions: literature; cited from earlier work
chickens = conditions: cimetidine in the diet, stress was not heat; cited from earlier work
[2] = conscious rats, i.v. 10 mg/kg in 3% EtOH 30 minutes prior to heat exposure at 44° C. ± 1

CN/C(=N/CCSCc1nc[nH]c1C)NC#N [Cimetidine, cimetidine]
Core body temperature after onset of heat stroke until heat shock, vs controls (conscious rats; FIG. 1): lower core body temperature
Time a lower, non-pathological core temperature is maintained in extreme heat, vs controls (conscious rats; FIG. 1, cimetidine pretreated animals): 2-4 times longer
Time of MAP blood pressure crash, vs controls (conscious rats; FIG. 2): delayed
Increase of interval between initiation of exposure to extreme heat and heat stroke crash to 40 mmHg, vs control (conscious rats; cimetidine pretreatment, P<0.05): 2.6 fold
Max. HR (heart rate) (conscious rats; [2]): 532 ± 28 BPM ± SEM
Max. MAP (mean arterial pressure) (conscious rats; [2]): 173 ± 23 mmHg ± SEM
Max. TB (body temperature) (conscious rats; [2]): 41.9 ± 0.9 °C ± SEM
Heat Tolerance (time of heat exposure until heat shock, TB ≧ 41.3° C. and MAP <40 mmHg) (conscious rats; conscious rats, i.v. 10 mg/kg in 3% EtOH 30 minutes prior to heat exposure at 44° C. ± 1, p<0.05 vs control): 315 ± 61 minutes ± SEM
Heart rate in the interval from exposure to heat stroke, MAP crash, vs controls (conscious rats; rat, in vivo): did not differ
Half-life [1]: 2 h
Effect in heat-induced brain injury (blood-brain barrier permeability, cerebral blood flow disturbances, edema, cell reactions) (rat): beneficial
Stress-induced modulations (chickens): reduced
